Results on 19 compounds are retold here after patent US20210221785A1, “AMINO-PYRIMIDONYL DERIVATIVES, A PROCESS FOR THEIR PREPARATION AND PHARMACEUTICAL COMPOSITIONS CONTAINING THEM” (LES LABORATOIRES SERVIER, priority 2018, published 2021).

For one assay, the system named is Z138 mantle cell lymphoma tumour cell lines. The experiment in a line: In vitro cytotoxicity, MTT assay. The conditions noted are these: Homo sapiens, Z-138, 96 h, Z138 cells exposed to the test compounds for 96 hours; cell viability vs DMSO treated cells. It counts as cell-based. Here is the method: The cytotoxicity studies were evaluated by MTT [3-(4,5-dimethylthiazol-2-yl)-2,5-diphenyltetrazolium bromide] assay and carried out on Z138 mantle cell lymphoma tumour cell lines. The cells are distributed onto microplates and exposed to the test compounds for 96 hours. MTT is then added for 4 hours and converted by NAD(P)H-dependent cellular oxidoreductase enzymes in formazan, which has a purple color. The viable cell number is proportional to the production of formuan salts and cell viability can be quantified by the absorbance of the solution at 540 nm with a speetrophotometer (Carmichael et al., Cancer Res. 1987, 47, 936-942).
Background: Formazan colour is commonly taken as a measure of viable cells.
As to `C#C[C@]1(O)CC[C@@H](C(=O)N2CCC(O)(Cn3cnc(Oc4ccc(F)cc4)c(N)c3=O)CC2)[C@H](c2ccccc2)C1` (relative stereo) [Example 92, rel-5-amino-3-[(1-{[(1R,2R,4S)-4-ethynyl-4-hydroxy-2-phenyl-cyclohexyl]carbonyl}-4-hydroxypiperidin-4-yl)methyl]-6-(4-fluorophenoxy)pyrimidin-4-one], it took 0.189 µM to reach half-maximal inhibition (IC50).

`C#CC1(F)CC[C@@H](C(=O)N2CCC(O)(Cn3cnc(Oc4ccc(F)cc4)c(N)c3=O)CC2)[C@H](c2ccccc2)C1` (relative stereo) [Example 93, rel-5-amino-3-({1-[(1R,2R)-4-ethynyl-4-fluoro-2-phenyl-cyclohexanecarbonyl]-4-hydroxypiperidin-4-yl}methyI)-6-(4-fluorophenoxy)-3,4-dihydropyrimidin-4-one]: the IC50 (as a rule, the concentration needed to halve the response being measured) came out at 0.0411 µM.

Turning to `Nc1c(Oc2ccc(F)cc2)ncn(CC2(O)CCN(C(=O)C3CCC(O)(Cc4ccc(F)cc4)CC3c3ccccc3)CC2)c1=O` [Example 99, rel-5-amino-6-(4-fluorophenoxy)-3-({1-[(1R,2R,4R)-4-[(4-fluorophenyl))methyl]-4-hydroxy-2-phenylcyclohexanecarbonyl]-4-hydroxypiperidin-4-yl}methyl)-3,4-dihydropyrimidin-4-one], the midpoint of inhibition, the IC50, lay at 0.0128 µM.

Staying with this assay, now noted: Z138 cells exposed to the test compounds for 96 hours; cell viability vs DMSO treated cells.
With “5-amino-6-(3-chlorophenyl)-3-({1-[(1R,2R)-4,4-difluoro-2-phenylcyclohexane-1-carbonyl]-4-hydroxypiperidin-4-yl}methyl)pyrimidin-4(3H)-one [Example 13]”, inhibition was half-maximal at 0.178 µM (IC50).

The target of the next assay is T1, His-His-USP7 (aa208-560, |C315A|) (Homo sapiens, UniProt Q93009, C315A).
T1 construct: His-His-USP7 (aa208-560, |C315A|); His-His (N)
T1 sequence (Q93009 208-560 C315A): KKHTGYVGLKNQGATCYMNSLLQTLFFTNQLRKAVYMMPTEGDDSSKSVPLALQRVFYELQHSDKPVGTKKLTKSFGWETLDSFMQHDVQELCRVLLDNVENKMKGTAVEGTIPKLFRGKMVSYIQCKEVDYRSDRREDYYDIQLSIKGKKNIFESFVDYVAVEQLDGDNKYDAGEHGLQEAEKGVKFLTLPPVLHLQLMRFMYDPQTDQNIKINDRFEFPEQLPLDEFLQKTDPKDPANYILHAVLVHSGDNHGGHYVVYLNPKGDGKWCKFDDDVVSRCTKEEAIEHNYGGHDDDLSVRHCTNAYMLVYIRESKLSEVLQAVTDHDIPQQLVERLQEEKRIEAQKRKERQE
The experiment in a line: Evaluation of the inhibition of USP7 by the Fluorescence Intensity (FLINT) readings. It counts as biochemical. The conditions noted are these: 0.25 nM His-His-USP7, compound incubated 60 minutes at 30° C., 500 nM Ubiquitin-Rhodamine-110 substrate; 50% reduction in kinetic rate. Here is the method:
USP7 activity was measured using Rhodamine-110 c-terminal labelled Ubiquitin as a substrate (UbiQ Bio). Incubation with USP7 results in the release of Rhodamine-110 leading to an increase in fluorescence which can be used in the continuous measurement of USP7 activity.
The USP7 reactions were performed in a 50 μL volume, in 384 well black solid low binding plates (Corning #3575). The reaction buffer consisted of 100 mM Bicine pH 8.0, 0.01% TritonX100, 1 mM TCEP, and 10% DMSO.
0.25 nM His-His-USP7 (aa208-560, |C315A|) was incubated with compound (final concentration 10% DMSO) for 60 minutes at 30° C. The reaction was then initiated by the addition of 500 nM Ubiquitin-Rhodamme-110 substrate and the plate read every 3 minutes for 21 minutes to measure the release of Rhodamine-110. Fluorescence Intensity (FLINT) readings were measured using a […] plate reader (Ex.485 nm, Em.535 nm).
The inhibition of increasing doses of compound was expressed as a percentage reduction in kinetic rate compared to the kinetic rates established between ‘DMSO only’ and ‘total inhibition’ controls (no USP7). The inhibitory concentrations that gave a 50% reduction in kinetic rate (IC50) were determined, from 11-point dose response cures, in XL-Fit using a 4-Parameter Logistic Model 205 (Sigmoidal Dose-Response Model).
For “5-amino-6-(3-chlorophenyl)-3-({1-[(1R,2R)-4,4-difluoro-2-phenylcyclohexane-1-carbonyl]-4-hydroxypiperidin-4-yl}methyl)pyrimidin-4(3H)-one [Example 13]”, the IC50 amounted to 97.5 nM.

For the compound `C#C[C@]1(O)CC[C@@H](C(=O)N2CCC(O)(Cn3cnc(Oc4ccc(F)cc4)c(N)c3=O)CC2)[C@H](c2ccccc2)C1` (relative stereo) [Example 92, rel-5-amino-3-[(1-{[(1R,2R,4S)-4-ethynyl-4-hydroxy-2-phenyl-cyclohexyl]carbonyl}-4-hydroxypiperidin-4-yl)methyl]-6-(4-fluorophenoxy)pyrimidin-4-one], the IC50 amounted to 230 nM.

With `C#CC1(F)CC[C@@H](C(=O)N2CCC(O)(Cn3cnc(Oc4ccc(F)cc4)c(N)c3=O)CC2)[C@H](c2ccccc2)C1` (relative stereo) [Example 93, rel-5-amino-3-({1-[(1R,2R)-4-ethynyl-4-fluoro-2-phenyl-cyclohexanecarbonyl]-4-hydroxypiperidin-4-yl}methyI)-6-(4-fluorophenoxy)-3,4-dihydropyrimidin-4-one], the IC50 amounted to 66.3 nM.

As to `NC(=O)c1ccc(Oc2ncn(CC3(O)CCN(C(=O)[C@@H]4CCC(F)(F)C[C@H]4c4ccccc4)CC3)c(=O)c2N)cc1Cl` [Example 80, 4-{[5-amino-1-({1-[(1R,2R)-4,4-difluoro-2-phenylcyclohexane-1-carbonyl]-4-hydroxypiperidin-4-yl}methyl)-6-oxo-1,6-dihydropyrimidin-4-yl]oxy}-2-chlorobentamide], the IC50 worked out at 375 nM.

Compound `NC(=O)c1ccc(Oc2ncn(CC3(O)CCN(C(=O)[C@@H]4CCC(F)(F)C[C@H]4c4ccccc4)CC3)c(=O)c2N)cc1F` [Example 81, 4-{[5-amino-1-({1-[(1R,2R)-4,4-difluoro-2-phenylcyclohexane-1-carbonyl]-4-hydroxypiperidin-4-yl}methyl)-6-oxo-1,6-dihydropyrimidin-4-yl]oxy}-2-fluorobenzamide] had an IC50 of 403 nM.

The compound `Nc1c(Oc2cccnc2)ncn(CC2(O)CCN(C(=O)C3CCC(F)(F)CC3c3ccccc3)CC2)c1=O` (stereo not drawn) [Example 84, 5-amino-3-({1-[(1,2-trans)-4,4-difluoro-2-phenylcyclohexane-1-carbonyl]-4-hydroxypiperidin-4-yl}methyl)-6-[(pyridin-3-yl)oxy]pyrimidin-4(3H)-one] showed an IC50 of 212 nM.

`Nc1c(Oc2cnc3cc[nH]c3c2)ncn(CC2(O)CCN(C(=O)[C@@H]3CCC(F)(F)C[C@H]3c3ccccc3)CC2)c1=O` [Example 106, 5-amino-3-([1-[(1R,2R)-4,4-difluoro-2-phenylcyclohexane-1-carbonyl]-4-hydroxypiperidin-4-yl]methyl)-6-[(1H-pyrrolo[3,2-b]pyridin-6-yl)oxy]pyrimidin-4(3H)-one] gave an IC50 of 152 nM. The IC50 values of the last two compounds are within 1.5-fold of each other.

The compound `NC(=O)c1ccc(Oc2ncn(CC3(O)CCN(C(=O)[C@@H]4CCC(F)(F)C[C@H]4c4ccccc4)CC3)c(=O)c2N)c(Cl)c1` [Example 107, 4-{[5-amino-1-({1-[(1R,2R)-4,4-difluoro-2-phenylcyclohexane-1-carbonyl]-4-hydroxypiperidin-4-yl}methyl)6-oxo-1,6-dihydropyrimidin-4-yl]oxy}-3-chlorobenzamide] came in with an IC50 of 479 nM. Compared with the last compound, the IC50 is about 3.2-fold higher.

As to `Nc1c(Oc2ccc(CCC3CCNCC3)cc2)ncn(CC2(O)CCN(C(=O)[C@@H]3CCC(F)(F)C[C@H]3c3ccccc3)CC2)c1=O` [Example 112, 5-amino-3-([1-[(1R,2R)-4,4-difluoro-2-phenylcyclohexane-1-carbonyl]-4-hydroxypiperidin-4-yl]methyl)-6-[4-[2-(piperidin-4-yl)ethyl]phenoxy]pyrimidin-4(3H)-one], the IC50 is 70.8 nM.

`Nc1c(Oc2ccc(CN3CCOCC3)cc2)ncn(CC2(O)CCN(C(=O)[C@@H]3CCC(F)(F)C[C@H]3c3ccccc3)CC2)c1=O` [Example 113, 5-amino-3-({1-[(1R,2R)-4,4-difluoro-2-phenylcyclohexane-1-carbonyl]-4-hydroxypiperidin-4-yl}methyl)-6-{4-[(morpholin-4-yl)methyl]phenoxyl}pyrimidin-4(3H)-one] came in with an IC50 of 140 nM.

Compound `Nc1c(Oc2ccc(CCC3CCCCN3)cc2)ncn(CC2(O)CCN(C(=O)[C@@H]3CCC(F)(F)C[C@H]3c3ccccc3)CC2)c1=O` (stereo partly drawn) [Example 114, 5-amino-3-({1-[(1R,2R)-4,4-difluoro-2-phenylcyclohexane-1-carbonyl]-4-hydroxypiperidin-4-yl}methyl)-6-{4-[2-(piperidin-2-yl)ethyl]phenoxy}pyrimidin-4(3H)-one] came in with an IC50 of 48.7 nM.

The compound `Nc1c(Oc2ccc([C@@H](N)C(F)(F)F)cc2)ncn(CC2(O)CCN(C(=O)[C@@H]3CCC(F)(F)C[C@H]3c3ccccc3)CC2)c1=O` [Example 116, 5-amino-6-{4-[(1R)-1-amino-2,2,2-trifluoroethyl]phenoxy}-3-({1-[(1R,2R)-4,4-difluoro-2-phenylcyclohexane-1-carbonyl]-4-hydroypiperidin-4-yl}methyl)pyrimidin-4(3H)-one] came in with an IC50 of 86.2 nM.

With `Nc1c(Oc2ccc(F)cc2)ncn(CC2(O)CCN(C(=O)[C@@H]3CC[C@@](F)(C#Cc4ccccn4)C[C@H]3c3ccccc3)CC2)c1=O` [Example 131, 5-amino-3-[(1-{[(1R,2R,4S)-4-fluoro-2-phenyl-4-[2-(pyridin-2-yl)ethynyl]cyclohexyl]carbonyl}-4-hydroxypiperidin-4-yl)methyl]-6-(4-fluorophenoxy)pyrimidin-4-one], half-maximal inhibition (IC50) required 21.8 nM.

In the case of `Nc1c(Oc2ccc(F)cc2)ncn(CC2(O)CCN(C(=O)[C@@H]3CC[C@](F)(C#Cc4ccccc4)C[C@H]3c3ccccc3)CC2)c1=O` [Example 135, 5-amino-3-({1-[(1R,2R,4R)-4-fluoro-2-phenyl-4-(2-phenylethynyl)cyclohexanecarbonyl]-4-hydroxypiperidin-4-yl}methyl)-6-(4-fluorophenoxy)-3,4-dihydropyrimidin-4-one], the IC50 turned out to be 36.4 nM.

In turn, `Nc1c(Oc2ccc(F)cc2)ncn(CC2(O)CCN(C(=O)[C@@H]3CC[C@@](F)(C#Cc4ccccc4)C[C@H]3c3ccccc3)CC2)c1=O` [Example 136, 5-amino-3-({1-[(1R,2R,4S)-4-fluoro-2-phenyl-4-(2-phenylethynyl)cyclobexanecarbonyl]-4-hydroxypiperidin-4-yl}methyl)-6-(4-fluorophenoxy)-3,4-dihydropyrimidin-4-one] returned an IC50 of 197 nM.

Compound `C#C[C@@]1(OC)CC[C@@H](C(=O)N2CCC(O)(Cn3cnc(Oc4ccc(F)cc4)c(N)c3=O)CC2)[C@H](c2ccccc2)C1` [Example 155, 5-amino-3-[(1-{[(1R,2R,4R)-4-ethynyl-4-methoxy-2-phenylcyclohexyl]carbonyl}-4-hydroxypiperidin-4-yl)methyl]-6-(4-fluorophenoxy)pyrimidin-4-one] registered a half-maximal inhibitory concentration (IC50) of 179 nM. The IC50 values of the last two compounds are within 1.5-fold of each other.

The compound `Nc1c(Oc2ccc(F)cc2)ncn(CC2(O)CCN(C(=O)[C@@H]3CC[C@@](F)(C#Cc4cc(F)ccn4)C[C@H]3c3ccccc3)CC2)c1=O` [Example 158, 5-amino-3-({1-[(1R,2R,4S)-4-fluoro-4-[2-(4-fluoropyridin-2-yl)ethynyl]-2-phenylcyclohexanecarbonyl]-4-hydroxypiperidin-4-yl}methyl)-6-(4-fluorophenoxy)-3,4-dihydropyrimidin-4-one] came in with an IC50 of 67.7 nM.

In turn, `CO[C@]1(C(=O)N2CCC(O)(Cn3cnc(Oc4ccc(F)cc4)c(N)c3=O)CC2)CC[C@H](C#Cc2nccn2C)C[C@@H]1c1ccccc1` [Example 160, 5-amino-6-(4-fluorophenoxy)-3-[(4-hydroxy-1-{[(1R,2R,4S)-1-methoxy-4-[2-(1-methylimidazol-2-yl)ethynyl]-2-phenylcyclohexyl]carbonyl}piperidin-4-yl)methyl]pyrimidin-4-one] gave an IC50 of 138 nM.
